Laboratory results taken from US20170189474A1, “ANTIFUNGAL THERAPY FOR THE TREATMENT OF HIRSCHSPRUNG-ASSOCIATED ENTEROCOLITIS” (Cedars-Sinai Medical Center, priority 2014, published 2017).

Tested on: 129SvEdnrb−/− (KO) mice with colonic aganglionosis
Assay: Histological enterocolitis scoring after medicated water treatment in murine model of HAEC
Type: in vivo, mouse
Details: Ednrb−/− (KO) mice, antifungal only in drinking water, vs untreated KO; trend, did not reach significance
Source text: Regular water treated KO mice (KO_H2O) and their wild type littermates (WT_H2O) were used as untreated control. […] The total enterocolitis score of each treatment was compared with KO_H2O by using unpaired two-tailed Student's t-test. Results are shown as Mean±SEM, *P<0.05; **P<0.01. We test antibiotic and antifungal agents and their combinations on the 129sv/Ednrb mouse strain shown to be a model of HAEC. The experimental groups and protocol are described below: Medicated water which contains enrofloxacin (Baytril), metronidazole, vancomycin, natamycin ([…]), fluconazole, and/or […] (Isavuconazole sulfate) are administered to pregnant mice from the time that the pregnancy is noted, through weaning of the pups. In other words, the administration of medicated water to moms are stopped after weaning, and then continued with the weaned pups. Six groups of animals (129sv/Ednrb-null mouse strain, n=5-8 per group) with different treatment are described as below. The dosage was calculated by the concentration of antibiotic and antifungal agents and assuming a mouse taking 5 ml water per day based on published data. Group 1. […] Significant changes in makeup between the samples will be verified by quantitative PCR. […]

| SMILES | reduction of mean enterocolitis score [%] |
| --- | --- |
| C[C@@H]1C/C=C/C=C/C=C/C=C/[C@H](O[C@@H]2O[C@H](C)[C@@H](O)[C@H](N)[C@@H]2O)C[C@@H]2O[C@](O)(C[C@@H](O)C[C@H]3O[C@@H]3/C=C/C(=O)O1)C[C@H](O)[C@H]2C(=O)O [AFX1, natamycin] | 42 |
| OC(Cn1cncn1)(Cn1cncn1)c1ccc(F)cc1F [AFX2, fluconazole] | 34 |
